In patent publication US20020048572A1, “Treatment of hypertriglyceridemia and other conditions using LXR modulators” (priority 2000, published 2002):

How the values were obtained:
[1] = test system: HepG2 cells and mice; assay: Gene expression microarrays (GEM) of LXR agonist-treated HepG2 cells and mice; assay type: in vivo, mouse; details: fold increase vs control; mice 5 mg/kg p.o. 7 d
Description: Total RNA extraction and purification for Northern blot analysis was accomplished using the TRI reagent (Molecular Research Center).
To understand the mechanism whereby LXR agonist increased plasma triglycerides, changes in global gene expression in response to LXR agonist treatment were assessed by gene expression micrarrays (GEM) and Northern blot analysis. The GEM experiments were carried out using RNA derived from control and LXR agonist-treated HepG2 cells and mice. […] In addition, a prominent subset of >20 fatty acid metabolism-associated genes was increased by LXR agonist. This subset included fatty acid synthase, carnitine palmitoyltransferase 1, acyl-CoA-binding protein, acyl glycerol-3 phosphate acyltransferase, fatty acid amide hydrolase, acyl carrier protein, fatty acid binding and transport proteins, and colipase, a small protein cofactor required by lipase for the efficient hydrolysis of dietary lipid. Up-regulation of liver and intestinal phosphoethanolamine cytidylyltransferase, a key regulatory enzyme in the CDP-ethanolamine pathway for phosphatidylethanolamine synthesis, was also noted.

[2] = target: T1, LXRα (Homo sapiens, UniProt Q13133); details: fold relative to DMSO
T1 sequence (Q13133 1-447): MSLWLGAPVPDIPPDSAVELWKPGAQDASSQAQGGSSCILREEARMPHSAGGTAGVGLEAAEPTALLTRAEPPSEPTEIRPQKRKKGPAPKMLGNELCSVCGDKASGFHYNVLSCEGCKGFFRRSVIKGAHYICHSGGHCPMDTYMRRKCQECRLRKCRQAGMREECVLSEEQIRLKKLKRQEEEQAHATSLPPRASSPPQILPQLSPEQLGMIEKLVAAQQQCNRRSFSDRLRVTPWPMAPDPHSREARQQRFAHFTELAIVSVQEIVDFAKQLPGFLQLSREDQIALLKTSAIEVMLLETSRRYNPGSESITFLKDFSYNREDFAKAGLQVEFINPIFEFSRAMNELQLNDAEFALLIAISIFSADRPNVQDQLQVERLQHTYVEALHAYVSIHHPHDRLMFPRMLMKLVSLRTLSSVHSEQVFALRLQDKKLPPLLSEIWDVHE

[3] = test system: wild-type mice; assay: Plasma and hepatic lipid analysis in wild-type mice; assay type: in vivo, mouse; details: 7 d
Description: FIG. 10. Agonist T0901317-mediated increases in hepatic and plasma triglyceride levels and lipogenic mRNA requires LXRs. Analysis of the lipid content of livers and plasma from vehicle- and T0901317-created wild-type and LXRα/β-/- mice (n=5 for each of the four groups shown, treatment for 7 d). Pooled plasma (50 μL from each of five mice per group) was fractionated and lipids analyzed as described. Shown are the concentrations for (A) FPLC triglyceride, (B) FPLC phospholipid, and (C) hepatic triglyceride. (D) Northern blot analysis of hepatic SREEP-I, SREBP-2, SCD-1, FAS, and ACC mRNA levels.
C57BL/6 mice (Charles River Laboratories) were between 6 and 10 wk old and weighed ˜20-30 g at the initiation of treatment. Golden Syrian Hamsters (Harlan Sprague-Dawley) were between 12 and 16 wk old (80-150 g). Animals were fed regular chow diets containing ˜4% fat and 0.02% cholesterol (PMI Pi-colab 5053 Chow). LXRα and β−/− mice were reared at the University of Texas Southwestern (UTSW) Medical Center at Dallas in accordance with the Institutional Animal Care and Research Advisory Committee at the UTSW Medical Center. Mice at UTSW were maintained on a 12 h light/12 h dark cycle and fed ad libitum a cereal-based mouse chow diet (No. 7001, Harlan Teklad).
Plasma was prepared from euthanized mice using standard centrifugation techniques and analyzed for plasma total cholesterol, HDL cholesterol, and triglyceride concentrations using a Hitachi 704 Clinical Analyzer. FPLC of plasma lipoproteins was accomplished using 200 μL aliquots of pooled plasma (from three to five animals) and fractionated on Superose 6 columns (Pharmacia). Cholesterol, triglyceride, and phospholipid concentrations in the fractions were determined enzymatically with reagents from Boehringer, Sigma, and Wako, respectively. Hepatic lipids were extracted and analyzed for triglyceride essentially as described (Bucolo, G. and David, H., Clin. Chem. 19:476-482 (1973); Yokode et al., Science 250:1273-1275 (1990)).

With `O=S(=O)(c1ccccc1)N(CC(F)(F)F)c1ccc(C(O)(C(F)(F)F)C(F)(F)F)cc1` [T0901317, N-(2,2,2-trifluoro-ethyl)-N-[4-(2,2,2-trifluoro-1-hydroxy-1-trifluoromethyl-ethyl)-phenyl]-benzenesulfonamide] the “SREBP-1 expression (GEM)” value [1] was “twofold”, the “fatty acid synthase expression (GEM)” value [1] was “twofold” and the “induction of transcriptional activity of LXRα” value [2] was “eightfold”. For the same molecule, the “plasma VLDL-triglyceride (FPLC)” value ([3]; wild type mice, fold increase) was “threefold”, the total plasma triglycerides ([3]; wild-type mice) was 225.7 ± 7 mg/dL and the hepatic triglyceride ([3]; wild-type mice, fold vs vehicle-treated controls) was “fivefold”.
